Patent US9527867B2, “Antibacterial biaromatic derivatives” (Actelion Pharmaceuticals Ltd., priority 2013, dated 2016)
Converted amounts (≈) assume the structure as drawn.

Assays:
Test in all cases: Bacterial growth minimal inhibitory concentration (broth microdilution, CLSI M7-A7)
Format in all cases: cell-based
[1] = system: Enterococcus faecium A949; details: multiply-resistant strain (in particular quinolone-resistant); for MIC: Enterococcus faecium, A949, cation-adjusted Mueller-Hinton Broth, read-out: MIC for E. faecium A949
Protocol: (§1) Minimal Inhibitory Concentrations (MICs; mg/L) were determined in cation-adjusted Mueller-Hinton Broth by a microdilution method following the description given in “Methods for Dilution Antimicrobial Susceptibility Tests for Bacteria that Grow Aerobically”, Approved standard, 7th ed., Clinical and Laboratory Standards Institute (CLSI) Document M7-A7, Wayne, Pa., USA (2006).
(§2) All Example compounds were tested against several Gram positive and Gram negative bacteria. […] Staphylococcus aureus A798, Enterococcus faecium A949 and Acinetobacter baumannii T6474 are multiply-resistant strains (in particular quinolone-resistant), while Moraxella catarrhalis A894 is a quinolone-sensitive strain and Staphylococcus aureus ATCC29213 is a methicillin-sensitive and quinolone-sensitive strain.

[2] = system: Staphylococcus aureus ATCC29213; details: methicillin-sensitive and quinolone-sensitive strain; for MIC: Staphylococcus aureus, ATCC29213, cation-adjusted Mueller-Hinton Broth, read-out: MIC for S. aureus ATCC29213
Protocol: as §1, §2

[3] = system: Acinetobacter baumannii T6474; details: multiply-resistant strain (in particular quinolone-resistant); for MIC: Acinetobacter baumannii, T6474, cation-adjusted Mueller-Hinton Broth
Protocol: as §1, §2

[4] = system: Staphylococcus aureus A798; details: multiply-resistant strain (in particular quinolone-resistant); for MIC: Staphylococcus aureus, A798, cation-adjusted Mueller-Hinton Broth, read-out: MIC for S. aureus A798
Protocol: as §1, §2

[5] = system: Moraxella catarrhalis A894; details: quinolone-sensitive strain; for MIC: Moraxella catarrhalis, A894, cation-adjusted Mueller-Hinton Broth
Protocol: as §1, §2

[6] = cation-adjusted Mueller-Hinton Broth

| Compound | MIC [1] | MIC [2] | MIC [3] | MIC [4] | MIC [5] | MIC for E. faecium A949 [1, 6] | MIC for S. aureus ATCC29213 [2, 6] | MIC for A. baumannii T6474 [3, 6] | MIC for S. aureus A798 [4, 6] | MIC for M. catarrhalis A894 [5, 6] |
| --- | --- | --- | --- | --- | --- | --- | --- | --- | --- | --- |
| COc1ccnc(-c2cc(CNCC[C@H]3CN(c4ccc5c(n4)NC(=O)CO5)C(=O)O3)ccc2O)c1 [Example 101, 6-((S)-5-{2-[4-hydroxy-3-(4-methoxy-pyridin-2-yl)-benzylamino]-ethyl}-2-oxo-oxazolidin-3-yl)-4H-pyrido[3,2-b][1,4]oxazin-3-one] | 2 µg/mL (≈ 4.07 µM) | ≤ 0.016 µg/mL | 0.125 µg/mL (≈ 0.254 µM) | ≤ 0.016 µg/mL | ≤ 0.016 µg/mL | – | – | – | – | – |
| COc1ccc(-c2cccc(CNCC[C@@H]3CN(c4ccc5c(c4)NC(=O)CS5)C(=O)O3)c2)cc1 [Example 6, 6-((R)-5-{2-[(4′-methoxy-biphenyl-3-ylmethyl)-amino]-ethyl}-2-oxo-oxazolidin-3-yl)-4H-benzo[1,4]thiazin-3-one] | 4 µg/mL (≈ 8.17 µM) | 1 µg/mL (≈ 2.04 µM) | 4 µg/mL (≈ 8.17 µM) | 1 µg/mL (≈ 2.04 µM) | 0.063 µg/mL (≈ 0.129 µM) | – | – | – | – | – |
| COc1ccc(C#N)c(-c2cccc(CNCC[C@@H]3CN(c4ccc5c(n4)NC(=O)CO5)C(=O)O3)c2)c1 [Example 32, 5-methoxy-3′-({2-[(R)-2-oxo-3-(3-oxo-3,4-dihydro-2H-pyrido[3,2-b][1,4]oxazin-6-yl)-oxazolidin-5-yl]-ethylamino}-methyl)-biphenyl-2-carbonitrile] | 2 µg/mL (≈ 4 µM) | 0.125 µg/mL (≈ 0.25 µM) | 0.5 µg/mL (≈ 1 µM) | 0.125 µg/mL (≈ 0.25 µM) | ≤ 0.016 µg/mL | – | – | – | – | – |
| COc1cnnc(-c2cccc(CNCC[C@@H]3CN(c4ccc5c(n4)NC(=O)CO5)C(=O)O3)c2)c1 [Example 97, 6-((R)-5-{2-[3-(5-methoxy-pyridazin-3-yl)-benzylamino]-ethyl}-2-oxo-oxazolidin-3-yl)-4H-pyrido[3,2-b][1,4]oxazin-3-one] | 8 µg/mL (≈ 16.8 µM) | 0.25 µg/mL (≈ 0.525 µM) | 0.25 µg/mL (≈ 0.525 µM) | 0.25 µg/mL (≈ 0.525 µM) | 0.031 µg/mL (≈ 0.0651 µM) | – | – | – | – | – |
| CCOC(=O)COc1cccc(-c2cccc(CNCC[C@H]3CN(c4ccc5c(n4)NC(=O)CO5)C(=O)O3)c2)c1 [Example 68, [3′-({2-[(S)-2-oxo-3-(3-oxo-3,4-dihydro-2H-pyrido[3,2-b][1,4]oxazin-6-yl)-oxazolidin-5-yl]-ethylamino}-methyl)-biphenyl-3-yloxy]-acetic acid ethyl ester] | > 8 µg/mL | 1 µg/mL (≈ 1.83 µM) | 8 µg/mL (≈ 14.6 µM) | 1 µg/mL (≈ 1.83 µM) | 0.125 µg/mL (≈ 0.229 µM) | – | – | – | – | – |
| O=C1COc2ccc(N3C[C@H](CCNCc4cccc(-c5cccc(OCCCCO)c5)c4)OC3=O)nc2N1 [Example 67, 6-[(S)-5-(2-{[3′-(4-hydroxy-butoxy)-biphenyl-3-ylmethyl]-amino}-ethyl)-2-oxo-oxazolidin-3-yl]-4H-pyrido[3,2-b][1,4]oxazin-3-one] | 8 µg/mL (≈ 15 µM) | 1 µg/mL (≈ 1.88 µM) | 2 µg/mL (≈ 3.76 µM) | 0.5 µg/mL (≈ 0.939 µM) | 0.063 µg/mL (≈ 0.118 µM) | – | – | – | – | – |
| N#Cc1cccc(-c2cccc(CNCC[C@@H]3CN(c4ccc5c(n4)NC(=O)CO5)C(=O)O3)c2)c1 [Example 33, 3′-({2-[(R)-2-oxo-3-(3-oxo-3,4-dihydro-2H-pyrido[3,2-b][1,4]oxazin-6-yl)-oxazolidin-5-yl]-ethylamino}-methyl)-biphenyl-3-carbonitrile] | 2 µg/mL (≈ 4.26 µM) | 0.125 µg/mL (≈ 0.266 µM) | 0.125 µg/mL (≈ 0.266 µM) | 0.25 µg/mL (≈ 0.532 µM) | ≤ 0.016 µg/mL | – | – | – | – | – |
| COc1cc(-c2cccc(CNCC[C@@H]3CN(c4ccc5c(c4)NC(=O)CS5)C(=O)O3)c2)ccc1C(N)=O [Example 29, 3-methoxy-3′-({2-[(R)-2-oxo-3-(3-oxo-3,4-dihydro-2H-benzo[1,4]thiazin-6-yl)-oxazolidin-5-yl]-ethylamino}-methyl)-biphenyl-4-carboxylic acid amide] | 8 µg/mL (≈ 15 µM) | 1 µg/mL (≈ 1.88 µM) | 2 µg/mL (≈ 3.76 µM) | 2 µg/mL (≈ 3.76 µM) | 0.063 µg/mL (≈ 0.118 µM) | – | – | – | – | – |
| COc1cnnc(-c2cccc(CNCC[C@H]3CN(c4ccc5c(n4)NC(=O)CS5)C(=O)O3)c2)c1 [Example 99, 6-((S)-5-{2-[3-(5-methoxy-pyridazin-3-yl)-benzylamino]-ethyl}-2-oxo-oxazolidin-3-yl)-4H-pyrido[3,2-b][1,4]thiazin-3-one] | 2 µg/mL (≈ 4.06 µM) | 0.031 µg/mL (≈ 0.0629 µM) | 0.125 µg/mL (≈ 0.254 µM) | 0.031 µg/mL (≈ 0.0629 µM) | ≤ 0.016 µg/mL | – | – | – | – | – |
| N#Cc1cnnc(-c2cccc(CNCC[C@H]3CN(c4ccc5c(n4)NC(=O)CO5)C(=O)O3)c2)c1 [Example 80, 6-[3-({2-[(S)-2-oxo-3-(3-oxo-3,4-dihydro-2H-pyrido[3,2-b][1,4]oxazin-6-yl)-oxazolidin-5-yl]-ethylamino}-methyl)-phenyl]-pyridazine-4-carbonitrile] | > 8 µg/mL | 0.5 µg/mL (≈ 1.06 µM) | 0.25 µg/mL (≈ 0.53 µM) | 0.5 µg/mL (≈ 1.06 µM) | 0.031 µg/mL (≈ 0.0658 µM) | – | – | – | – | – |
| COc1nc(OC)nc(-c2cccc(CNCC[C@@H]3CN(c4ccc5c(c4)NC(=O)CS5)C(=O)O3)c2)n1 [Example 28, 6-((R)-5-{2-[3-(4,6-dimethoxy-[1,3,5]triazin-2-yl)-benzylamino]-ethyl}-2-oxo-oxazolidin-3-yl)-4H-benzo[1,4]thiazin-3-one] | 4 µg/mL (≈ 7.65 µM) | 0.25 µg/mL (≈ 0.478 µM) | 1 µg/mL (≈ 1.91 µM) | 0.25 µg/mL (≈ 0.478 µM) | 0.063 µg/mL (≈ 0.121 µM) | – | – | – | – | – |
| COc1cccc(-c2nccc(CNCC[C@H]3CN(c4ccc5c(n4)NC(=O)CO5)C(=O)O3)n2)c1 [Example 102, 6-[(S)-5-(2-{[2-(3-methoxy-phenyl)-pyrimidin-4-ylmethyl]-amino}-ethyl)-2-oxo-oxazolidin-3-yl]-4H-pyrido[3,2-b][1,4]oxazin-3-one] | 4 µg/mL (≈ 8.39 µM) | 0.25 µg/mL (≈ 0.525 µM) | 1 µg/mL (≈ 2.1 µM) | 1 µg/mL (≈ 2.1 µM) | 0.063 µg/mL (≈ 0.132 µM) | – | – | – | – | – |
| COc1cccc(-c2cc(CNCC[C@H]3CN(c4ccc5c(n4)NC(=O)CO5)C(=O)O3)ccn2)n1 [Example 87, 6-((S)-5-{2-[(6′-methoxy-[2,2]bipyridinyl-4-ylmethyl)-amino]-ethyl}-2-oxo-oxazolidin-3-yl)-4H-pyrido[3,2-b][1,4]oxazin-3-one] | 2 µg/mL (≈ 4.2 µM) | 0.125 µg/mL (≈ 0.262 µM) | 0.25 µg/mL (≈ 0.525 µM) | 0.063 µg/mL (≈ 0.132 µM) | ≤ 0.016 µg/mL | – | – | – | – | – |
| COC(=O)c1cccc(-c2cccc(CNCC[C@H]3CN(c4ccc5c(n4)NC(=O)CO5)C(=O)O3)c2)c1 [Example 77, 3′-({2-[(S)-2-oxo-3-(3-oxo-3,4-dihydro-2H-pyrido[3,2-b][1,4]oxazin-6-yl)-oxazolidin-5-yl]-ethylamino}-methyl)-biphenyl-3-carboxylic acid methyl ester] | 4 µg/mL (≈ 7.96 µM) | 0.5 µg/mL (≈ 0.995 µM) | 2 µg/mL (≈ 3.98 µM) | 0.25 µg/mL (≈ 0.497 µM) | ≤ 0.063 µg/mL | – | – | – | – | – |
| N#Cc1cc(O)nc(-c2cccc(CNCC[C@@H]3CN(c4ccc5c(c4)NC(=O)CS5)C(=O)O3)c2)c1 [Example 47, 2-hydroxy-6-[3-({2-[(R)-2-oxo-3-(3-oxo-3,4-dihydro-2H-benzo[1,4]thiazin-6-yl)-oxazolidin-5-yl]-ethylamino}-methyl)-phenyl]-isonicotinonitrile] | > 8 µg/mL | 4 µg/mL (≈ 7.97 µM) | 8 µg/mL (≈ 15.9 µM) | 4 µg/mL (≈ 7.97 µM) | 0.25 µg/mL (≈ 0.498 µM) | – | – | – | – | – |
| COc1ccc(C#N)cc1-c1cccc(CNCC[C@H]2CN(c3ccc4c(n3)NC(=O)CO4)C(=O)O2)c1 [Example 76, 6-methoxy-3′-({2-[(S)-2-oxo-3-(3-oxo-3,4-dihydro-2H-pyrido[3,2-b][1,4]oxazin-6-yl)-oxazolidin-5-yl]-ethylamino}-methyl)-biphenyl-3-carbonitrile] | 8 µg/mL (≈ 16 µM) | 0.5 µg/mL (≈ 1 µM) | 2 µg/mL (≈ 4 µM) | 1 µg/mL (≈ 2 µM) | ≤ 0.063 µg/mL | – | – | – | – | – |
| COc1cccc(-c2cccc(CNCCc3cn(-c4ccc5c(n4)NC(=O)CO5)c(=O)o3)c2)n1 [Example 35, 6-(5-{2-[3-(6-methoxy-pyridin-2-yl)-benzylamino]-ethyl}-2-oxo-oxazol-3-yl)-4H-pyrido[3,2-b][1,4]oxazin-3-one] | 1 µg/mL (≈ 2.11 µM) | 0.063 µg/mL (≈ 0.133 µM) | 0.125 µg/mL (≈ 0.264 µM) | 0.063 µg/mL (≈ 0.133 µM) | ≤ 0.016 µg/mL | – | – | – | – | – |
| N#Cc1ccc(O)c(-c2cc(CNCC[C@@H]3CN(c4ccc5c(c4)NC(=O)CS5)C(=O)O3)ccn2)c1 [Example 38, 4-hydroxy-3-[4-({2-[(R)-2-oxo-3-(3-oxo-3,4-dihydro-2H-benzo[1,4]thiazin-6-yl)-oxazolidin-5-yl]-ethylamino}-methyl)-pyridin-2-yl]-benzonitrile] | 0.125 µg/mL (≈ 0.249 µM) | ≤ 0.016 µg/mL | 0.063 µg/mL (≈ 0.126 µM) | ≤ 0.016 µg/mL | ≤ 0.016 µg/mL | – | – | – | – | – |
| COc1ccc(C#N)c(-c2cccc(CNCCc3cn(-c4ccc5c(n4)NC(=O)CO5)c(=O)o3)c2)c1 [Example 37, 5-methoxy-3′-({2-[2-oxo-3-(3-oxo-3,4-dihydro-2H-pyrido[3,2-b][1,4]oxazin-6-yl)-2,3-dihydro-oxazol-5-yl]-ethylamino}-methyl)-biphenyl-2-carbonitrile] | 1 µg/mL (≈ 2.01 µM) | 0.063 µg/mL (≈ 0.127 µM) | 0.25 µg/mL (≈ 0.503 µM) | 0.063 µg/mL (≈ 0.127 µM) | ≤ 0.016 µg/mL | – | – | – | – | – |
| 6-((R)-5-{2-[3-(6-methoxy-pyridin-2-yl)-benzylamino]-ethyl}-2-oxo-oxazolidin-3-yl)-4H-pyrido[3,2-b][1,4]oxazin-3-one [Example 31] | – | – | – | – | – | 2 µg/mL | 0.25 µg/mL | 0.5 µg/mL | 0.25 µg/mL | ≦0.016 mg/L |
